pKi: −log10 of the molar value.

Test [1] in a line: Binding affinity to wild type HIV1 protease at pH 5.0 and 20 degC by ITC method. Also on record: species or system Human immunodeficiency virus 1. A general note: In ITC the heat of successive injections is recorded.
For test [2], the target named is T1, Human immunodeficiency virus type 1 protease (Human immunodeficiency virus 1, UniProt Q72874, I47V/V32I/V82I). Kind of test: Binding affinity to HIV1 protease V32I/I47V/V82I triple mutant at pH 4.0 and 28 degC by ITC method.
T1 sequence (Q72874 entry or part of it I47V/V32I/V82I): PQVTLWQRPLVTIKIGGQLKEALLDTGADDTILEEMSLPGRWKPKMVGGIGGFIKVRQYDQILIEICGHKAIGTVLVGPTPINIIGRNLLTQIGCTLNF
For test [3], the target named is T1, Human immunodeficiency virus type 1 protease. Kind of test: Binding affinity to HIV1 protease V32I/I47V/V82I triple mutant at pH 5.8 and 28 degC by ITC method.
Test [4] deals with Human immunodeficiency virus 1. Nature of the test: Binding affinity to wild type HIV1 protease assessed as -TdeltaS level at pH 5.0 and 20 degC by ITC method.
Test [5] deals with Human immunodeficiency virus 1.
Description: Binding affinity to wild type HIV1 protease assessed as deltaH level at pH 5.0 and 20 degC by ITC method
Test [6] concerns Human immunodeficiency virus 1. The source holds these as a separate data set.
Description: Binding affinity to wild type HIV1 protease assessed as deltaS level at pH 5.0 and 20 degC by ITC method
In test [7] the test system is Human immunodeficiency virus 1. The source holds these as a separate data set.
Description: Binding affinity to wild type HIV1 protease assessed as deltaG level at pH 5.0 and 20 degC by ITC method
The subject of test [8] is Human immunodeficiency virus type 1 protease (Human immunodeficiency virus 1), Q72874 [V32I,I47V,V82I].
For test [9] the test system is unchanged. The source holds these as a separate data set.
The test system is the same in test [10]. This is another data set of the same source.
Test [11] shares this test system. This is another data set of the same source.
Test [12] has the same test system. The source holds these as a separate data set.
For test [13] the test system is unchanged. This is another data set of the same source.
For test [14] the test system is unchanged. This is another data set of the same source.
For test [15] the test system is unchanged. The source holds these as a separate data set.

Human immunodeficiency virus type 1 protease (Human immunodeficiency virus 1), Q72874 [V32I,I47V,V82I], sequence (Q72874 entry or part of it V32I/I47V/V82I): as the sequence (Q72874 entry or part of it I47V/V32I/V82I) above

A word on the pKi: it is −log10 of the Ki, conventionally taken in molar units. A low value points to a high Ki. Regarding `CC(C)CN(C[C@@H](O)[C@H](Cc1ccccc1)NC(=O)O[C@H]1CCOC1)S(=O)(=O)c1ccc(N)cc1` [AMPRENAVIR], the results for the pKi in [1], in test [2] and in [3] were 9.41, 8.00 and 7.46, respectively. In addition, the -TdeltaS in test [4] is -5.3 kcal/mol; in [10], -4.2 kcal/mol; in test [14], -4.3 kcal/mol. For the same molecule, the deltaH in test [5] was -7.3 kcal/mol; in [8] it was -6.8 kcal/mol; in [12] it was -6 kcal/mol. Also, the deltaS in test [6] stood at 18.1 cal/mol.K; in test [9], 14 cal/mol.K; in test [13], 14.3 cal/mol.K. Besides, the results for the deltaG in [7], in test [11] and in [15] were -12.6 kcal/mol, -11 kcal/mol and -10.2 kcal/mol, respectively.

The record behind these values is ChEMBL document CHEMBL4004851, “Room Temperature Neutron Crystallography of Drug Resistant HIV-1 Protease Uncovers Limitations of X-ray Structural Analysis at 100 K” (J Med Chem, 2017).
